Reference: the NIST ThermoML archive (doi:10.1021/je900609f)
± gives the expanded uncertainty stated by the source.

Settings: Crystal; visual observation

Question: With `C=CC(=O)Nc1cc(F)c(Br)c(F)c1` [N-(4-bromo-3,5-difluorophenyl)acrylamide] as the compound, how does the Normal melting temperature read?
Answer: 182 ± 0.7 °C
